{"source": "patent US9586931B2", "about": "(Merck Sharp & Dohme Corp., priority 2012, dated 2017)", "note": "pIC50: −log10 of the molar value.", "data": [{"biological_target": "T1, recombinant human GST-Syk (Homo sapiens, UniProt P43405)", "T1 construct": "purchased Carna Biosciences 08-176", "assay": "Homogeneous Time-Resolved Fluorescence (HTRF) assay for the recombinant human Syk enzyme", "assay_type": "biochemical", "conditions": "recombinant human GST-Syk 5 pM, ATP 25 μM, 10-dose titration 10 μM to 0.508 nM; read-out: rhSYK Activity IC50", "method_in_brief": "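GST-hSyk fusion protein phosphorylated a peptide for 45 min at room temperature. The reaction was quenched with 2 nM Eu-anti-phosphotyrosine antibody and 70 nM SA-APC in 15 mM Tris pH 7.5, 40 mM EDTA, 0.01% Tween 20. The HTRF signal was read after 30 min.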", "values": [{"compound": "Cc1cc(Nc2cc(C(F)(F)F)ccn2)nc(-c2cn(C(C)C(=O)NCC(c3ccc(C(F)(F)F)cc3)N3CCOCC3)nn2)c1", "note": "(stereo not shown) [Example 1.52, 2-[4-(4-methyl-6-{[4-(trifluoromethyl)pyridin-2-yl]amino}pyridin-2-yl)-1H-1,2,3-triazol-1-yl]-N-{2-morpholin-4-yl-2-[4-(trifluoromethyl)phenyl]ethyl}propanamide]", "pIC50": 6.36}, {"compound": "Cc1cc(Nc2cc(C(F)(F)F)ccn2)nc(-c2cn(C(C)C(=O)N3CCC(c4ccncc4)C3)nn2)c1", "note": "(stereo not shown) [Example 1.53, 4-methyl-6-{1-[1-methyl-2-oxo-2-(3-pyridin-4-ylpyrrolidin-1-yl)ethyl]-1H-1,2,3-triazol-4-yl}-N-[4-(trifluoromethyl)pyridin-2-yl]pyridin-2-amine]", "pIC50": 7.46}, {"compound": "Cc1cc(Nc2cc(C(F)(F)F)ccn2)nc(-c2cn(C(C)C(=O)N3CCc4cc(O)c(O)cc4C(c4ccccc4)C3)nn2)c1", "note": "(stereo not shown) [Example 1.54, 3-{2-[4-(4-methyl-6-{[4-(trifluoromethyl)pyridin-2-yl]amino}pyridin-2-yl)-1H-1,2,3-triazol-1-yl]propanoyl}-1-phenyl-2,3,4,5-tetrahydro-1H-3-benzazepine-7,8-diol]", "pIC50": 6.87}, {"compound": "COC(=O)[C@@H]1CCCN1C(=O)[C@@H](C)n1cc(-c2cc(C)cc(Nc3cc(C(F)(F)F)ccn3)n2)nn1", "note": "[Example 1.55, methyl 1-{(2R)-2-[4-(4-methyl-6-{[4-(trifluoromethyl)pyridin-2-yl]amino}pyridin-2-yl)-1H-1,2,3-triazol-1-yl]propanoyl}prolinate]", "pIC50": 6.35}, {"compound": "COC(=O)[C@@H]1CCCN1C(=O)[C@H](C)n1cc(-c2cc(C)cc(Nc3cc(C(F)(F)F)ccn3)n2)nn1", "note": "[Example 1.56, methyl 1-{(2S)-2-[4-(4-methyl-6-{[4-(trifluoromethyl)pyridin-2-yl]amino}pyridin-2-yl)-1H-1,2,3-triazol-1-yl]propanoyl}prolinate]", "pIC50": 6.37}, {"compound": "COC(=O)CNC(=O)[C@@H](C)n1cc(-c2cc(C)cc(Nc3cc(C(F)(F)F)ccn3)n2)nn1", "note": "[Example 1.57, methyl N-{(2R)-2-[4-(4-methyl-6-{[4-(trifluoromethyl)pyridin-2-yl]amino}pyridin-2-yl)-1H-1,2,3-triazol-1-yl]propanoyl}glycinate]", "pIC50": 7.03}, {"compound": "Cc1cc(Nc2nccc(C(F)(F)F)n2)cc(-n2cc(C3(O)CCC(C(N)=O)C(C)(C)C3)nn2)c1", "note": "(stereo not shown) [Example 1.58, 4-hydroxy-2,2-dimethyl-4-[1-(3-methyl-5-{[4-(trifluoromethyl)pyrimidin-2-yl]amino}phenyl)-1H-1,2,3-triazol-4-yl]cyclohexanecarboxamide]", "pIC50": 7.53}, {"compound": "Cc1cc(Nc2cc(F)ccn2)nc(-c2cn(C(C)c3ccc(C(=O)O)cc3)nn2)c1", "note": "(stereo not shown) [Example 2.2, 4-[1-(4-{6-[(4-fluoropyridin-2-yl)amino]-4-methylpyridin-2-yl}-1H-1,2,3-triazol-1-yl)ethyl]benzoic acid]", "pIC50": 8.05}, {"compound": "Cc1cc(Nc2cc(C(C)O)ccn2)nc(-c2cn(C(C)c3ccc(C(=O)O)cc3)nn2)c1", "note": "(stereo not shown) [Example 2.3, 4-{1-[4-(6-{[4-(1-hydroxyethyl)pyridin-2-yl]amino}-4-methylpyridin-2-yl)-1H-1,2,3-triazol-1-yl]ethyl}benzoic acid]", "pIC50": 7.68}, {"compound": "Cc1cc(Nc2cc(OCCO)ccn2)nc(-c2cn(C(C)c3ccc(C(=O)O)cc3)nn2)c1", "note": "(stereo not shown) [Example 2.4, 4-{1-[4-(6-{[4-(2-hydroxyethoxy)pyridin-2-yl]amino}-4-methylpyridin-2-yl)-1H-1,2,3-triazol-1-yl]ethyl}benzoic acid]", "pIC50": 7.55}, {"compound": "Cc1cc(Nc2cc(OC3CCOC3)ccn2)nc(-c2cn(C(C)c3ccc(C(=O)O)cc3)nn2)c1", "note": "(stereo not shown) [Example 2.5, 4-{1-[4-(4-methyl-6-{[4-(tetrahydrofuran-3-yloxy)pyridin-2-yl]amino}pyridin-2-yl)-1H-1,2,3-triazol-1-yl]ethyl}benzoic acid]", "pIC50": 6.88}, {"compound": "Cc1cc(Nc2cc(OC3CCCCC3)ccn2)nc(-c2cn(C(C)c3ccc(C(=O)O)cc3)nn2)c1", "note": "(stereo not shown) [Example 2.6, 4-{1-[4-(6-{[4-(cyclohexyloxy)pyridin-2-yl]amino}-4-methylpyridin-2-yl)-1H-1,2,3-triazol-1-yl]ethyl}benzoic acid]", "pIC50": 7.58}, {"compound": "Cc1cc(Nc2cc(OC3CCC3)ccn2)nc(-c2cn(C(C)c3ccc(C(=O)O)cc3)nn2)c1", "note": "(stereo not shown) [Example 2.8, 4-{1-[4-(6-{[4-(cyclobutyloxy)pyridin-2-yl]amino}-4-methylpyridin-2-yl)-1H-1,2,3-triazol-1-yl]ethyl}benzoic acid]", "pIC50": 5.30}, {"compound": "CCOc1ccnc(Nc2cc(C)cc(-c3cn(C(C)c4ccc(C(=O)O)cc4)nn3)n2)c1", "note": "(stereo not shown) [Example 2.9, 4-[1-(4-{6-[(4-ethoxypyridin-2-yl)amino]-4-methylpyridin-2-yl}-1H-1,2,3-triazol-1-yl)ethyl]benzoic acid]", "pIC50": 7.23}, {"compound": "Cc1cc(Nc2cc(C3CCC3)ccn2)nc(-c2cn(C(C)c3ccc(C(=O)O)cc3)nn2)c1", "note": "(stereo not shown) [Example 2.10, 4-[1-(4-{6-[(4-cyclobutylpyridin-2-yl)amino]-4-methylpyridin-2-yl}-1H-1,2,3-triazol-1-yl)ethyl]benzoic acid]", "pIC50": 8.43}, {"compound": "Cc1cc(Nc2cc(C3CC3)ccn2)nc(-c2cn(C(C)c3ccc(C(=O)O)cc3)nn2)c1", "note": "(stereo not shown) [Example 2.11, 4-[1-(4-{6-[(4-cyclopropylpyridin-2-yl)amino]-4-methylpyridin-2-yl}-1H-1,2,3-triazol-1-yl)ethyl]benzoic acid]", "pIC50": 8.19}, {"compound": "Cc1cc(Nc2cc(C(C)(C)C)ccn2)nc(-c2cn(C(C)c3ccc(C(=O)O)cc3)nn2)c1", "note": "(stereo not shown) [Example 2.12, 4-[1-(4-{6-[(4-tert-butylpyridin-2-yl)amino]-4-methylpyridin-2-yl}-1H-1,2,3-triazol-1-yl)ethyl]benzoic acid]", "pIC50": 8.26}, {"compound": "Cc1cc(Nc2cc(C(C)C)ccn2)nc(-c2cn(C(C)c3ccc(C(=O)O)cc3)nn2)c1", "note": "(stereo not shown) [Example 2.13, 4-{1-[4-(4-methyl-6-{[4-(1-methylethyl)pyridin-2-yl]amino}pyridin-2-yl)-1H-1,2,3-triazol-1-yl]ethyl}benzoic acid]", "pIC50": 8.08}, {"compound": "Cc1cc(Nc2nccc(C(F)(F)F)n2)cc(-c2nc[nH]n2)c1", "note": "[Example 2.14, N-[3-methyl-5-(1H-1,2,4-triazol-3-yl)phenyl]-4-(trifluoromethyl)pyrimidin-2-amine]", "pIC50": 6.55}, {"compound": "Cc1cc(Nc2nccc(C(F)(F)F)n2)cc(-c2ncnn2C[C@H](O)CO)c1", "note": "[Example 2.15, (2S)-3-[5-(3-methyl-5-{[4-(trifluoromethyl)pyrimidin-2-yl]amino}phenyl)-1H-1,2,4-triazol-1-yl]propane-1,2-diol]", "pIC50": 5.50}, {"compound": "Cc1cc(Nc2nccc(C(F)(F)F)n2)cc(-c2cn(CC3(O)CCC(C(=O)O)C(C)(C)C3)nn2)c1", "note": "(stereo not shown) [Example 3.4, 4-hydroxy-2,2-dimethyl-4-{[4-(3-methyl-5-{[4-(trifluoromethyl)pyrimidin-2-yl]amino}phenyl)-1H-1,2,3-triazol-1-yl]methyl}cyclohexanecarboxylic acid]", "pIC50": 7.09}, {"compound": "Cc1cc(Nc2cc(C(F)(F)F)ccn2)nc(-c2cn(CC3(O)CCC(C(=O)O)C(C)(C)C3)nn2)c1", "note": "(stereo not shown) [Example 3.5, 4-hydroxy-2,2-dimethyl-4-{[4-(4-methyl-6-{[4-(trifluoromethyl)pyridin-2-yl]amino}pyridin-2-yl)-1H-1,2,3-triazol-1-yl]methyl}cyclohexanecarboxylic acid]", "pIC50": 7.15}]}]}
